Test results published in US11279774B2, “Cyclodextrin dimers, compositions thereof, and uses thereof” (UNDERDOG PHARMACEUTICALS, INC., priority 2019, dated 2022).

What was measured:
[1] = Turbidity assay (in vitro solubility assay), 7KC suspension; assay type: physicochemical; settings: 7KC vs cholesterol
Procedure: This single concentration of cyclodextrin is used in order to standardize the test results. To perform the test, the samples are incubated for 30 mins at 37 C, and then absorbance at 350 nm is measured, e.g., using a spectrophotometer plate reader. Relative turbidity is determined by dividing the measured turbidity in the presence of the cyclodextrin to the baseline turbidity without the cyclodextrin. A given cyclodextrin has greater affinity for 7KC than cholesterol if the relative turbidity of the 7KC suspension is lower than the relative turbidity of the cholesterol solution.

[2] = system: blood cells (whole blood); experiment: Extraction of 7KC and cholesterol from blood cells (ex vivo whole blood, LC-MS/MS); assay type: cell-based, human; settings: whole blood incubated 3 hours at 37C; for plasma (serum) cholesterol levels: mass spectrometry
Procedure: Blood was collected from healthy volunteers by licensed phlebotomists. The test substances or PBS alone (negative control) were added to whole blood at various concentrations and incubated for 3 hours at 37C. Blood was then spun down and serum collected. Serum was frozen and then processed for mass spec.
Plasma free 7-ketocholesterol was determined by LC-MS/MS following protein precipitation and extraction with acetonitrile and derivatization with the novel quaternary aminooxy (QAO) mass tag reagent, Amplifex Keto Reagent (AB Sciex, Framingham, Mass., USA), which has been used in the analysis of testosterone (Star-Weinstock [et al.], Analytical Chemistry, 84(21):9310-9317. (2012)).
A 50 μL sample of plasma was spiked with 0.5 ng of the internal standard, d7-7-ketocholesterol (Toronto Research Chemicals, North York, Ontario, CA) prepared at 0.1 ng/μL in ethanol. The sample was treated with 250 μL of acetonitrile, vortex mixed, centrifuged to remove protein at 12,000×g for 10 min. The supernatant was dried under vacuum and then treated with 75 μL of QAO reagent. The working reagent was prepared by mixing 0.7 mL of Amplifex keto reagent with 0.7 mL of Amplifex keto diluent to prepare a 10 mg/mL stock. This stock was then diluted 1:4 with 5% acetic acid in methanol to a final working concentration of 2.5 mg/mL. The mixture was allowed to react at room temperature for two days before LC-MS/MS analysis.
Standards of 7-ketocholesterol (Toronto Research Chemicals, North York, Ontario, CA) were prepared from 1 to 100 ng/ml in charcoal stripped plasma, SP1070, (Golden West Biological, Temecula, Calif., USA) and in phosphate buffered saline. There was residual 7-ketocholesterol detected in the stripped plasma, so the standards from PBS were used.
QAO-7-ketocholesterol derivatives were analyzed using a 4000 Q-TRAP hybrid/triple quadrupole linear ion trap mass spectrometer (SCIEX, Framingham, Mass., USA) with electrospray ionization (ESI) in positive mode. The mass spectrometer was interfaced to a Shimadzu (Columbia, Md.) SIL-20AC XR auto-sampler followed by 2 LC-20AD XR LC pumps.
The instrument was operated with the following settings: source voltage […], GS1 50, GS2 50, CUR 20, TEM 550 and CAD gas medium. Compounds were quantified with multiple reaction monitoring (MRM) and transitions optimized by infusion of pure derivatized compounds as presented in Table 1 below. The bold transitions were used for quantification.
Separation was achieved using a Gemini 3μ C6-phenyl 110 Å, 100×2 mm column (Phenomenex, Torrance, Calif., USA) kept at 35° C. using a Shimadzu (Columbia, Md.) CTO-20AC column oven. The gradient mobile phase was delivered at a flow rate of 0.5 ml/min, and consisted of two solvents, A: 0.1% formic acid in water, B: 0.1% formic acid in acetonitrile. The initial concentration of solvent B was 20% followed by a linear increase to 60% B in 10 min, then to 95% B in 0.1 min, held for 3 minutes, decreased back to starting 20% B over 0.1 min, and then held for 4 min. […]
Data were acquired using Analyst 1.6.2 (SCIEX, Framingham, Mass., USA) and analyzed with Multiquant 3.0.1 (SCIEX, Framingham, Mass., USA) software. Sample values were calculated from standard curves generated from the peak area ratio of the analyte to internal standard versus the analyte concentration that was fit to a linear equation with 1/× weighting. The lower limit of quantification was 1 ng/mL with an accuracy of 102% and precision (relative standard deviation) of 8.5%. […]

blood cells = experiment: Hemolysis assay; assay type: cell-based; settings: 7.5 mM, three hours at 37 C
Procedure: For the test solutions, the amount of PBS varied depending on the concentration of cyclodextrin being tested. Samples were tested in triplicate. 50 μL of blood was added to each sample with PBS and cyclodextrin solution (stocks also made in PBS) to achieve the appropriate concentration in a final volume of 200 ul. 5% Triton X-100 was used as the positive control and PBS was the negative control. Once all the samples were mixed the samples were placed into a 37 C incubator for three hours with agitation. The positive control was 100% hemolyzed by Triton X-100 detergent. Once the samples were out of incubation, they were diluted by the same factor in a 96 hydrograde plate and normalized to the positive control absorbance, which is around 1.1. The absorbance is read at 540 nm. The average of the samples was then corrected by subtracting the negative control. The experiment was run three times, and the error bars are the standard error of the mean (Melanga [et al.], Journal of Pharmaceutical Sciences, 105(9):2921-31. (2016)), (Kiss [et al.], European Journal of Pharmaceutical Sciences, 40(4):376-80. (2010)).

large-face butyl-linked hydroxy-propyl beta-cyclodextrin HP(βCD-BUT-βCD), DS˜3 [DS3 butyl dimer]
specificity for 7KC over cholesterol (turbidity) [1]: affinity and specificity for 7KC
specificity for 7KC over cholesterol (turbidity) ([1]; listed as HPβCD-butyl-DS3): greater specificity for 7KC over cholesterol

large-face butyl-linked hydroxy-propyl beta-cyclodextrin HP(βCD-BUT-βCD), DS˜8 [DS8 HPβCD dimers]
removal of 7KC from blood cells (plasma free 7KC) [2]: removed substantial quantities of 7KC
plasma (serum) cholesterol levels [2]: unperturbed
plasma (serum) cholesterol levels ([2]; listed as HPβCD dimer): not perturbed
plasma (serum) cholesterol levels ([2]; listed as HPβCD dimers (DS˜8)): does not appreciably impact plasma cholesterol levels
removal of 7KC from blood cells (plasma free 7KC) ([2]; listed as HPβCD dimers (DS˜8)): much more efficiently than HPβCD monomers

large-face triazole-linked beta-cyclodextrin (βCD-(Triazole)1-BCD, DS=0) [CD-triazole-CD DS 0]
specificity for 7KC over cholesterol (turbidity) [1]: specificity for 7KC over cholesterol
hemolysis (blood cells): ~5%

large-face triazole-linked beta-cyclodextrin HP(βCD-Triazole-βCD) DS˜3 [HPβCD -triazole-DS3]
specificity for 7KC over cholesterol (turbidity) [1]: greater specificity for 7KC over cholesterol
specificity for 7KC over cholesterol (turbidity) ([1]; listed as Triazole-linked HPβCD dimer (DS˜3)): affinity and specificity for 7KC
specificity for 7KC over cholesterol (turbidity) ([1]; listed as triazole dimers labeled DS 3): greater specificity than DS 6 or DS 7 dimers
